Literature values as cited in patent US20020137728A1, “Topical oral care compositions” (Oraceutical LLC, priority 2001, published 2002).

Columns and labels:
[1] = system: serum alkaline phosphatase enzyme; details: single dose intraperitoneally, Wistar rats with artificially induced periodontal lesions
[2] = peroxide tooth whitening composition on tooth surface

Row | time to reach vital pulp tissue from initial contact on the tooth surface [2] | Structure (SMILES) | serum alkaline phosphatase enzyme [1]
1 | – | O=C1O[C@H]([C@@H](O)CO)C(O)=C1O [ascorbic acid] | increase
2 | ≤ 15 min | OO [hydrogen peroxide] | –
